Entries after “also recorded” stand apart in the source; their conditions may differ.
How the values were obtained:
[1] = tested on: CD3/CD28-activated human T-cells; assay: In vitro T-cell activity: interleukin-2 secretion by CD3/CD28-activated human T-cells; assay type: cell-based; conditions: compound 0.1 nM, 16 to 20 hours
Protocol: A relative immunosuppressive property of the compound compared to authentic FK506 was determined using T-lymphocytes as described in Mo, S. J. et al. (J. Am. Chem. Soc. 2011, 133, 976-985). Simply, interleukin-2 secretions were quantified after treating the compound (0.1 nM) with CD3/CD28-activated human T-cells with the compounds for 16 to 20 hours.
A relative immunosuppressive property of 31-O-demethyl-FK506 compared to authentic FK506 was determined using the same method as Example 3. (1).

[2] = tested on: rat pheochromocytoma cells (PC12); assay: Nerve regeneration activity: neurite outgrowth in NGF-treated PC12 cells; assay type: cell-based; conditions: 10 nM compound with NGF 10 ng/mL, 96 hours
Protocol: A relative nerve regeneration activity of the compound, compared to authentic FK506, was determined using rat pheochromocytoma cells (PC12) by the method described in Mo, S. J. et al. (J. Am. Chem. Soc. 2011, 133, 976-985). The PC12 cells were treated with nerve growth factor (NGF; KOMA Biotech; 10 ng/mL) which induces neurite outgrowth for 96 hours. 10 nM of FK506 or 9-deoxo-prolyl-FK506 was treated together or excluded. The neurite lengths were measured on photographic prints by the method Revill, W. P. et al. described (J. Pharmacol. Exp. Ther. 2002, 302, 1278-1285).
A relative neuroregenerative property of 31-O-demethyl-FK506 compared to authentic FK506 was determined using the same method as Example 3. (2).
A relative nerve regeneration property of 9-deoxo-31-O-demethyl-FK506 compared to authentic FK506 was determined using the same method as Example 3. (2).

SMILES | interleukin-2 secretion (immunosuppressive activity) [1] | neurite outgrowth promotion (neurite length) [2]
C=CC[C@@H]1/C=C(\C)C[C@H](C)C[C@H](OC)[C@H]2O[C@@](O)(CC(=O)N3CCCC[C@H]3C(=O)O[C@H](/C(C)=C/[C@@H]3CC[C@@H](O)[C@H](O)C3)[C@H](C)[C@@H](O)CC1=O)[C@H](C)C[C@@H]2OC [9-deoxo-31-O-demethyl-FK506] | significantly increased to reach that of the normal group; also recorded: increased significantly to reach a normal level | excellent effect on neurite outgrowth promotion; also recorded: promotes neurite outgrowth in PC12 cells
C=CC[C@@H]1/C=C(\C)C[C@H](C)C[C@H](OC)[C@H]2O[C@@](O)(CC(=O)N3CCC[C@H]3C(=O)O[C@H](/C(C)=C/[C@@H]3CC[C@@H](O)[C@H](OC)C3)[C@H](C)[C@@H](O)CC1=O)[C@H](C)C[C@@H]2OC [9-deoxo-prolyl-FK506] | significantly increased to reach that of the normal group; also recorded: increased significantly to reach a normal level | excellent effect on neurite outgrowth promotion; also recorded: promotes neurite outgrowth in PC12 cells
C=CC[C@@H]1/C=C(\C)C[C@H](C)C[C@H](OC)[C@H]2O[C@@](O)(C(=O)C(=O)N3CCCC[C@H]3C(=O)O[C@H](/C(C)=C/[C@@H]3CC[C@@H](O)[C@H](O)C3)[C@H](C)[C@@H](O)CC1=O)[C@H](C)C[C@@H]2OC [31-O-demethyl-FK506] | significantly increased to reach that of the normal group; also recorded: increased significantly to reach a normal level | excellent effect on neurite outgrowth promotion; also recorded: promotes neurite outgrowth in PC12 cells
C=CC[C@@H]1/C=C(\C)C[C@H](C)C[C@H](OC)[C@H]2O[C@@](O)(C(=O)C(=O)N3CCCC[C@H]3C(=O)O[C@H](/C(C)=C/[C@@H]3CC[C@@H](O)[C@H](OC)C3)[C@H](C)[C@@H](O)CC1=O)[C@H](C)C[C@@H]2OC [FK506] | decreased as much as the number of CD3/CD28-inactivated human T-cells | –
